# Data reported in patent US9302999B2, “Substituted triazoles as herbicides” (E. I. DU PONT DE NEMOURS AND COMPANY, priority 2012, dated 2016).
# Experiments:
# Type in all cases: in vivo
# [1] = system: panicum, fall (fall panicum Panicum dichotomiflorum); experiment: Test F pre-/postemergence: panicum, fall
# From the text: (§1) Seeds of plant species selected from corn (Zea mays), soybean (Glycine max), velvetleaf (Abutilon theophrasti), lambsquarters (Chenopodium album), poinsettia, wild (wild poinsettia, Euphorbia heterophylla), pigweed, palmer (palmer pigweed, Amaranthus palmeri), waterhemp (common waterhemp, Amaranthus rudis), surinam grass (Brachiaria decumbens), crabgrass, Brazil (Brazilian crabgrass, Digitaria horizontalis), panicum, fall (fall panicum Panicum dichotomiflorum), crabgrass, large (large crabgrass, Digitaria sanguinalis), foxtail, giant (giant foxtail, Setaria faberii), foxtail, green (green foxtail Setaria viridis), goosegrass (Eleusine indica), ragweed (common ragweed, Ambrosia elatior), barnyardgrass (Echinochloa crus-galli), sandbur (southern sandbur, Cenchrus echinatus), arrowleaf sida (Sida rhombifolia), ryegrass, Italian (Italian ryegrass, Lolium multiflorum), dayflower, VA (Virginia (VA) dayflower, Commelina virginica), field bindweed (Convolvulus arvensis), cocklebur (common cocklebur, Xanthium strumarium), morningglory (Ipomoea coccinea), nightshade (eastern black nightshade, Solanum ptycanthum), kochia (Kochia scoparia), nutsedge, yellow (yellow nutsedge, Cyperus esculentus), johnsongrass (Sorghum halepense), smartweed (ladysthumb smartweed, Polygonum persicaria), and beggarticks (hairy beggarticks, Bidens pilosa), were planted into a silt loam soil and treated preemergence with test chemicals formulated in a non-phytotoxic solvent mixture which included a surfactant. At the same time, plants selected from these crop and weed species and also pigweed (Amaranthus retroflexus), waterhemp_RES1 (ALS/Triazine resistant common waterhemp, Amaranthus rudis) and waterhemp_RES2 (ALS/HPPD resistant common waterhemp, Amaranthus rudis) were planted in pots containing a planting medium comprising spaghnum peat moss, vermiculite, wetting agent and starter nutrients treated with postemergence applications of some of the test chemicals formulated in the same manner. Plants ranged in height from 2 to 18 cm for postemergence treatments (1- to 4-leaf stage).
# (§2) Treated plants and controls were maintained in a greenhouse for 14 to 21 days, after which time all species were compared to controls and visually evaluated. Plant response ratings, summarized in Table E, are based on a scale of 0 to 100 where 0 is no effect and 100 is complete control. A dash (-) response means no test result.
# [2] = system: soybean (Glycine max); experiment: Test F pre-/postemergence: soybean
# From the text: as §1, §2
# [3] = system: beggarticks (hairy beggarticks, Bidens pilosa); experiment: Test F pre-/postemergence: beggarticks
# From the text: as §1, §2
# [4] = system: Oilseed Rape; experiment: Test C postemergence: oilseed rape
# From the text: At the same time, plants selected from these crop and weed species and also barley (winter barley, Hordeum vulgare), canarygrass (Phalaris minor), chickweed (common chickweed, Stellaria media) windgrass (Apera spica-venti) and deadnettle (henbit deadnettle, Lamium amplexicaule) were planted in pots containing Redi-Earth® planting medium (Scotts Company, 14111 Scottslawn Road, Marysville, Ohio 43041) comprising spaghnum peat moss, vermiculite, wetting agent and starter nutrients and treated with postemergence applications of test chemicals formulated in the same manner. Plants ranged in height from 2 to 18 cm (1- to 4-leaf stage) for postemergence treatments.
# as §2, with “13” for “14”, “15” for “21”, “C,” for “E,”
# [5] = system: ragweed (common ragweed, Ambrosia elatior); experiment: Test F pre-/postemergence: ragweed; conditions: Preemergence
# From the text: as §1, §2
# [6] = Postemergence, 8 g ai/ha, scale 0 to 100
# [7] = Postemergence, 16 g ai/ha, scale 0 to 100
# [8] = Postemergence, 31 g ai/ha, scale 0 to 100
# [9] = Postemergence, 62 g ai/ha, scale 0 to 100
# [10] = Postemergence, 125 g ai/ha, scale 0 to 100
# [11] = Preemergence, 16 g ai/ha, scale 0 to 100 (0 no effect, 100 complete control)
# [12] = Preemergence, 31 g ai/ha, scale 0 to 100 (0 no effect, 100 complete control)
# [13] = Preemergence, 125 g ai/ha, scale 0 to 100
# [14] = Preemergence, 250 g ai/ha, scale 0 to 100
# [15] = 31 g ai/ha, scale 0 to 100 (0 no effect, 100 complete control)
# [16] = 62 g ai/ha, scale 0 to 100 (0 no effect, 100 complete control)
smiles,measurement,setting,value
Cc1nn(-c2ccc(F)c(F)c2)nc1Oc1ccnc(C(F)(F)F)c1 [Compound 145],"Plant response rating, Panicum, Fall",[1]; [6],10
same,"Plant response rating, Panicum, Fall",[1]; [7],25
same,"Plant response rating, Panicum, Fall",[1]; [8],40
same,"Plant response rating, Panicum, Fall",[1]; [9],40
same,"Plant response rating, Panicum, Fall",[1]; [10],40
same,"Plant response rating, Soybean",[2]; [6],25
same,"Plant response rating, Soybean",[2]; [7],35
same,"Plant response rating, Soybean",[2]; [8],40
same,"Plant response rating, Soybean",[2]; [9],50
same,"Plant response rating, Soybean",[2]; [10],60
same,"Plant response rating, Beggarticks",[3]; [6],10
same,"Plant response rating, Beggarticks",[3]; [7],25
same,"Plant response rating, Beggarticks",[3]; [8],30
same,"Plant response rating, Beggarticks",[3]; [9],35
same,"Plant response rating, Beggarticks",[3]; [10],45
CCCc1nn(-c2ccc(F)cc2)nc1Cc1ccnc(C(F)(F)F)c1 [Compound 153],"Plant response rating, Panicum, Fall",[1]; [11],5
same,"Plant response rating, Panicum, Fall",[1]; [12],100
same,"Plant response rating, Panicum, Fall",[1]; [13],100
same,"Plant response rating, Panicum, Fall",[1]; [14],100
same,"Plant response rating, Oilseed Rape",[4]; [15],90
same,"Plant response rating, Oilseed Rape",[4]; [16],90
same,"Plant response rating, Oilseed Rape","[4]; 250 g ai/ha, scale 0 to 100",95
same,"Plant response rating, Ragweed","[5]; 16 g ai/ha, scale 0 to 100 (0 no effect, 100 complete control)",5
same,"Plant response rating, Ragweed",[5]; [15],5
same,"Plant response rating, Ragweed","[5]; 125 g ai/ha, scale 0 to 100",20
same,"Plant response rating, Ragweed","[5]; 250 g ai/ha, scale 0 to 100",80
same,"Plant response rating, Soybean",[2]; [11],0
same,"Plant response rating, Soybean",[2]; [12],0
same,"Plant response rating, Soybean",[2]; [13],5
same,"Plant response rating, Soybean",[2]; [14],25
same,"Plant response rating, Beggarticks",[3]; [11],0
same,"Plant response rating, Beggarticks",[3]; [12],25
same,"Plant response rating, Beggarticks","[3]; Preemergence, 62 g ai/ha, scale 0 to 100",35
same,"Plant response rating, Beggarticks",[3]; [13],65
CCc1nn(-c2ccc(F)cc2)nc1Oc1ccnc(C(F)(F)F)c1 [Compound 166],"Plant response rating, Oilseed Rape",[4]; [16],5
same,"Plant response rating, Oilseed Rape","[4]; 250 g ai/ha, scale 0 to 100",40
CCCc1nn(-c2ccc(C(F)(F)F)c(F)c2)nc1Oc1ccnc(C(F)(F)F)c1 [Compound 185],"Plant response rating, Oilseed Rape",[4]; [16],50
